Key:
Aromatase [1] = biological target: T1, Aromatase (Homo sapiens, UniProt P11511); test: Inhibition of human aromatase extracted from placental microsomes using [1beta-3H]androstenedione as substrate after 15 mins by scintillation counting analysis
T1 sequence (P11511 whole entry): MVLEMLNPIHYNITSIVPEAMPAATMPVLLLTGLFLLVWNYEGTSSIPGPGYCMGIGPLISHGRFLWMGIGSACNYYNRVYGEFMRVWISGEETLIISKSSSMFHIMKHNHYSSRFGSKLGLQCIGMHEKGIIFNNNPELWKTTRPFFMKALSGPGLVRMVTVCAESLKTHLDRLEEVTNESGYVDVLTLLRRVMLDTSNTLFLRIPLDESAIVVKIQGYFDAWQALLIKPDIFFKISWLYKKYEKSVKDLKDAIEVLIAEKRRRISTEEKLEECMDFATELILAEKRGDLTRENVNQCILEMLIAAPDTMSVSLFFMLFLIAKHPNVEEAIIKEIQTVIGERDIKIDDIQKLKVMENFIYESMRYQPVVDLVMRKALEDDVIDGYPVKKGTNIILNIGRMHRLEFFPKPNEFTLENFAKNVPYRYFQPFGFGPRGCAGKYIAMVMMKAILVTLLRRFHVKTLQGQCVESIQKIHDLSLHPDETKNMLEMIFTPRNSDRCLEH

Aromatase [2] = biological target: T1, Aromatase; test: Inhibition of human aromatase extracted from placental microsomes
Aromatase [3] = biological target: T1, Aromatase; test: Time dependent inactivation of human aromatase extracted from placental microsomes using [1,2-3H]androst-4-ene-3,17-dione
Aromatase [4] = biological target: T1, Aromatase; test: Irreversible inhibition of human aromatase extracted from placental microsomes; settings: read-out: Ki(app)
[5] = Antitumor activity against NMU-induced mammary tumor in rat; format: functional
Aromatase [6] = biological target: T1, Aromatase; test: Inhibition of human aromatase extracted from placental microsomes using [1beta-3H]androstenedione as substrate after 20 mins by radiometric assay
Aromatase [7] = biological target: T2, Aromatase (Rattus norvegicus, UniProt P22443); test: Inhibition of aromatase in denucleated ovarian fraction extracted from PMSG pretreated Wistar rat by using testosterone as substrate at 1 uM
T2 sequence (P22443 whole entry): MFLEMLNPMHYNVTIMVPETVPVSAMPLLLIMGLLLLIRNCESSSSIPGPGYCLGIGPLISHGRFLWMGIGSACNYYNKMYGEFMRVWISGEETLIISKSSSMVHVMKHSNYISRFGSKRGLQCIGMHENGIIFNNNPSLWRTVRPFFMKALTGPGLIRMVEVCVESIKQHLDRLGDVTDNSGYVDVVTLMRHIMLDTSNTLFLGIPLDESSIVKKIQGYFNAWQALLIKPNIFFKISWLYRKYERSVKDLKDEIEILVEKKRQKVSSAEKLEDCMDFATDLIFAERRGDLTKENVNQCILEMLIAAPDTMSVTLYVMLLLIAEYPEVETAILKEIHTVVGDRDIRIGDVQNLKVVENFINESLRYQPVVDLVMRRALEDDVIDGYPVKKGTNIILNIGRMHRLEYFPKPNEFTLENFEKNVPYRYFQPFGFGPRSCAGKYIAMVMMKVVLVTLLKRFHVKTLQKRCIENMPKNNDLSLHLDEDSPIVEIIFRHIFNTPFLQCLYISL

Aromatase [8] = biological target: T1, Aromatase; test: Inhibition of human aromatase extracted from placental microsomes assessed as 3H2O formation from [1b,2b-3H] testosterone preincubated for 5 mins followed by protein addition measured at 7 to 21 mins by liquid scintillation counting analysis
Aromatase [9] = biological target: T2, Aromatase; test: Inhibition of aromatase in denucleated ovarian fraction extracted from PMSG pretreated Wistar rat using testosterone as substrate at 10 uM by radioimmuno assay
Aromatase [10] = biological target: T1, Aromatase; test: Inhibition of human aromatase extracted from placental microsomes using [1,2-3H]androstenedione as substrate after 20 mins by scintillation counting analysis
Aromatase [11] = biological target: T1, Aromatase; test: Time dependent inhibition of human aromatase extracted from placental microsomes using [1beta,2beta-3H]-testosterone as substrate after 10 mins by scintillation counting analysis
Aromatase [12] = biological target: T1, Aromatase; test: Irreversible inhibition of human aromatase extracted from placental microsomes by double reciprocal plot analysis in presence of [1beta,2beta-3H]androstenedione
Aromatase [13] = biological target: T1, Aromatase; test: Competitive inhibition of human aromatase extracted from placental microsomes by Dixon plot analysis in presence of [1,2-3H]androstenedione
Aromatase [14] = biological target: T1, Aromatase; test: Competitive inhibition of human placental aromatase in presence of testosterone
Aromatase [15] = biological target: T1, Aromatase; test: Inhibition of human aromatase extracted from placental microsomes using [1beta-3H]androstenedione as substrate after 20 mins by scintillation counting analysis
HeLa = test: Cytotoxicity against human HeLa cells after 48 hrs by MTT assay; format: functional, cell-based
[16] = Cytotoxicity against human PC3 cells after 48 hrs by MTT assay; format: functional, cell-based; settings: PC-3, 48 h
Aromatase [17] = biological target: T2, Aromatase; test: Competitive inhibition of aromatase in ovarian fraction extracted from PMSG pretreated Wistar rat by double reciprocal plot analysis in presence of testosterone
Aromatase [18] = biological target: T1, Aromatase; test: Inhibition of aromatase (unknown origin); set-up: inhibition (INH): concentration or dose not given beside the values; settings: human
Aromatase [19] = biological target: T2, Aromatase; test: Inhibition of aromatase in denucleated ovarian fraction extracted from PMSG pretreated Wistar rat using testosterone as substrate at 50 uM by radioimmuno assay
Aromatase [20] = biological target: T1, Aromatase; test: Time dependent inhibition of human aromatase extracted from placental microsomes using [1beta,2beta-3H]androstenedione as substrate by scintillation counting analysis
Aromatase [21] = biological target: T1, Aromatase; test: Inhibition of aromatase (unknown origin) at 5 uM relative to control

C[C@]12CC[C@H](O)C(N=[N+]=[N-])=C1CC[C@@H]1[C@@H]2CC[C@]2(C)/C(=N/O)CC[C@@H]12
INH (Aromatase [1]): 32.8%

C[C@]12CC[C@H]3[C@@H](Cc4n[nH]c5c4[C@]3(C)CCC5=O)[C@@H]1CC[C@@H]2O
IC50 (Aromatase [2]): 236 nM

C[C@]12CC[C@H]3[C@@H](CCC4=CC(=O)CC[C@@]43C(F)F)[C@@H]1CCC2=O
Ki (Aromatase [3]): 1000 nM

C[C@]12CCC(=O)C(O)=C1CC[C@@H]1[C@@H]2CC[C@]2(C)C(=O)CC[C@@H]12 [FORMESTANE]
Ki (Aromatase [4]): 43 nM
Activity [5]: 67%
IC50 (Aromatase [6]): 1200 nM
inhibition at 1 µM (Aromatase [7]): 99.2%

COc1cc(/C=C2\C[C@H]3[C@@H]4CCC5=CC(=O)CC[C@]5(C)[C@H]4CC[C@]3(C)C2=O)ccc1OCCCn1ccnc1
IC50 (Aromatase [8]): 4400 nM

C[C@]12CC[C@@H]3c4ccc(O)cc4CC[C@H]3[C@@H]1CC(=O)OC2
inhibition at 10 µM (Aromatase [9]): 1.5%

C[C@]12CCC(=O)C=C1[C@@H](OC(=O)CBr)C[C@@H]1[C@@H]2CC[C@]2(C)C(=O)CC[C@@H]12
IC50 (Aromatase [10]): 2800 nM

CS[C@]12C=CC(=O)C=C1CC[C@H]1[C@@H]3CC[C@H](O)[C@@]3(C)CC[C@@H]12
Ki (Aromatase [11]): 610 nM

C[C@]12CC[C@H]3[C@@H](CCC4=CC(=O)CC[C@@]43S)[C@@H]1CC[C@@H]2O
Ki (Aromatase [12]): 106 nM

C[C@]12CC[C@H]3[C@@H](CCC4=CCCC[C@@]43CO)[C@@H]1CCC2=O
Ki (Aromatase [13]): 12.5 nM

C[C@]12CCC(=O)C3=C1C(=Nc1ccccc1S3)C[C@@H]1[C@@H]2CC[C@]2(C)C(=O)CC[C@@H]12
IC50 (Aromatase [14]): 42300 nM

C[C@]12C=CC(=O)C=C1CC[C@@H]1[C@@H]2CC[C@]2(C)C(=O)/C(=C/c3ccc4c(c3)OCO4)C[C@@H]12
IC50 (Aromatase [15]): 6400 nM

C=C1C[C@@H]2[C@H]([C@H](O)C[C@]3(C)C(=O)CC[C@@H]23)[C@@]2(C)C=CC(=O)C=C12
IC50 (HeLa): 16800 nM
IC50 [16]: 24900 nM

CC(=O)[C@@]1(C)CC[C@H]2[C@@H](CCC3=CC(=O)CC[C@@]32C)C1CC#N (some centres not stated)
Ki (Aromatase [17]): 270 nM
inhibition (INH) (Aromatase [18]): 46.5%

C[C@]12CC[C@@H]3c4ccc(OCc5ccccc5)cc4CC[C@H]3[C@@H]1CC(=O)OC2
inhibition at 50 µM (Aromatase [19]): 26.7%

C[C@]12CC[C@H]3[C@@H](CCC4=CC(=O)CC[C@@]43CS)[C@@H]1CCC2=O
Ki (Aromatase [20]): 34 nM

CC(=O)O[C@H]1CC[C@@]2(C)C(=CC[C@H]3C(CC#N)[C@@](C)(CBr)CC[C@@H]32)C1 (some centres not stated)
inhibition at 5 µM (Aromatase [21]): 19.4%

From ChEMBL document CHEMBL3751755, “Developing steroidal aromatase inhibitors-an effective armament to win the battle against breast cancer” (Eur J Med Chem, 2015)
